From US20060134602A1, “Methods of identifying cytotoxic effects in quiescent cells” (priority 2004, published 2006)
Like-named read-outs stand apart in the source and are kept apart here. *1 amine or outer side, *2 acyl side, *3 side chain or, on linkers, in order; H or OH if unused. Where a SMILES comes first, the peptide text is derived from it. Bridges are numbered along the chain shown (N, C = ends). Roman numbers before positions name the chains, in order. [ ]: non-standard residue; d: D form. Actinocin(9to1) = Cc1c2oc3c(C)ccc(C(=O)[*:1])c3nc-2c(C(=O)[*:2])c(N)c1=O; NMeV = CN[C@H](C(=O)O)C(C)C; Sar = CNCC(=O)O

Assays:
[1] = system: quiescent IMR-90 human lung fibroblasts; assay: cells
Protocol: Quantitation of Cytotoxicity: A luciferase assay kit was used to quantitate the amount of ATP produced by cells in each well to measure cytotoxicity of the compounds. The assay utilizes the enzyme luciferase which catalyses a reaction of ATP and luciferin to form light. The light produced is measured to determine the amount of ATP produced by the cells in each well. The higher the cell mortality in each well, the less ATP, and consequently, the less light will be produced. […] Wells in rows one and two, which contained no compound, were controls.
Preparation of Quiescent Cells: A 96 well plate was plated at 0.8×10^4 cells/well in 200 μL of growth medium (MEM with Earle's salt) with IMR-90 human lung fibroblasts. The cells were incubated at 37° C. for four days.
The media was removed from the wells, and each well was washed twice with 200 μL of MEM with Earle's salt and no serum. 90 μL/well of MEM with Earle's salt media containing sodium pyruvate, non-essential amino acids, L-glutamine and 0.1% fetal bovine serum was added to each well, and the cells were incubated for one day at 37° C.
10 μL of carbonyl cyanide (a positive control for cytotoxicity) stock solutions were added to rows one and two to obtain concentrations of 0 μM, 0.003 μM, 0.01 μM, 0.03 μM, 0.1 μM, 0.3 μM, 1.0 μM, 3.0 μM, 10.0 μM, 30.0 μM, and 100.0 μM in wells 2 through 12. 10 μL of stock solution of test compounds were added to duplicate row to obtain concentrations of 0 μM, 0.003 μM, 0.01 μM, 0.03 μM, 0.1 μM, 0.3 μM, 1.0 μM, 3.0 μM, 10.0 μM, 30.0 μM, and 100.0 μM in wells 2 through 12. The first well in each row contained no cells. […] The cells were incubated with the test compounds for 24 hours, 48 hours, or 72 hours.

[2] = system: proliferating cancer cells; conditions: cited from earlier work
[3] = read-out: IC50, 24 hours, quiescent IMR-90 human lung fibroblasts, 24 hours incubation
[4] = read-out: IC50, 48 hours, quiescent IMR-90 human lung fibroblasts, 48 hours incubation
[5] = read-out: IC50, 72 hours, quiescent IMR-90 human lung fibroblasts, 72 hours incubation
[6] = Homo sapiens, IMR-90, 24 h, read-out: IC50, 24 hours, quiescent IMR-90 human lung fibroblasts, 24 hours incubation
[7] = Homo sapiens, IMR-90, 48 h, read-out: IC50, 48 hours, quiescent IMR-90 human lung fibroblasts, 48 hours incubation
[8] = Homo sapiens, IMR-90, 72 h, read-out: IC50, 72 hours, quiescent IMR-90 human lung fibroblasts, 72 hours incubation

| Structure (SMILES) | IC50 [1, 3] | IC50 [1, 4] | IC50 [1, 5] | IC50 [1, 6] | IC50 [1, 7] | IC50 [1, 8] | further results |
| --- | --- | --- | --- | --- | --- | --- | --- |
| CCc1c2c(nc3ccc(O)cc13)-c1cc3c(c(=O)n1C2)COC(=O)[C@]3(O)CC [SN-38] | 7.1 µM | 8 µM | 8.5 µM | – | – | – | – |
| CC(=O)O[C@H]1C(=O)[C@@]2(C)[C@H]([C@H](OC(=O)c3ccccc3)[C@]3(O)C[C@H](OC(=O)[C@H](O)[C@@H](NC(=O)c4ccccc4)c4ccccc4)C(C)=C1C3(C)C)[C@]1(OC(C)=O)CO[C@@H]1C[C@@H]2O [Paclitaxel, paclitaxel] | – | – | 10 µM | > 10 µM | > 10 µM | 8.5 µM | concentration inhibiting cancer cell growth [2]: low nanomolar concentration; concentration at which cytotoxic to quiescent fibroblasts ([1]; human, 72 h): approximately 10 μM |
| CO[C@@]12[C@H](COC(N)=O)C3=C(C(=O)C(C)=C(N)C3=O)N1C[C@@H]1N[C@@H]12 [Mitomycin C, mitomycin C] | > 10 µM | > 10 µM | 5 µM | – | – | – | – |
| COc1cccc2c1C(=O)c1c(O)c3c(c(O)c1C2=O)C[C@@](O)(C(=O)CO)C[C@@H]3O[C@H]1C[C@H](N)[C@H](O)[C@H](C)O1 [Doxorubicin, doxorubicin] | – | – | – | > 10 µM | 5.3 µM | 2.5 µM | time dependence of cytotoxicity against quiescent fibroblasts [1]: time-dependent increases in cytotoxicity |
| Nc1ccn([C@@H]2O[C@H](CO)[C@@H](O)C2(F)F)c(=O)n1 [Gemcitabine, gemcitabine] | – | – | – | > 10 µM | > 10 µM | > 10 µM | – |
| CC[C@]1(O)C[C@H]2CN(CCc3c([nH]c4ccccc34)[C@@](C(=O)OC)(c3cc4c(cc3OC)N(C=O)[C@H]3[C@@](O)(C(=O)OC)[C@H](OC(C)=O)[C@]5(CC)C=CCN6CC[C@]43[C@@H]65)C2)C1 [Vincristine, vincristine] | – | – | – | > 10 µM | > 10 µM | > 10 µM | – |
| O=C1[O][Pt]2([NH][C@@H]3CCCC[C@H]3[NH]2)[O]C1=O [Oxaliplatin, oxaliplatin] | > 10 µM | > 10 µM | > 10 µM | – | – | – | – |
| CC[C@]1(O)C[C@@H]2CN(CCc3c([nH]c4ccccc34)[C@@](C(=O)OC)(c3cc4c(cc3OC)N(C)[C@H]3[C@@](O)(C(=O)OC)[C@H](OC(C)=O)[C@]5(CC)C=CCN6CC[C@]43[C@@H]65)C2)C1 [Vinblastine, vinblastine] | – | – | – | > 10 µM | > 10 µM | > 10 µM | – |
| O=c1[nH]cc(F)c(=O)[nH]1 [5-FU, 5-fluorouricil] | > 10 µM | > 10 µM | > 10 µM | – | – | – | – |
| COc1cc([C@@H]2c3cc4c(cc3[C@@H](O[C@@H]3O[C@@H]5CO[C@@H](C)O[C@H]5[C@H](O)[C@H]3O)[C@H]3COC(=O)[C@H]23)OCO4)cc(OC)c1O [Etoposide, etoposide] | – | – | – | > 10 µM | > 10 µM | > 10 µM | – |
| C[C@@H]1C[C@@H]([C@H](O)CC2CC(=O)NC(=O)C2)C(=O)[C@@H](C)C1 [cycloheximide] | – | – | – | – | – | – | IC50 ([1]; Homo sapiens, IMR-90, 24 h, read-out: IC50, 24 hours): > 10 µM; IC50 ([1]; Homo sapiens, IMR-90, 48 h, read-out: IC50, 48 hours): > 10 µM; IC50 ([1]; Homo sapiens, IMR-90, 72 h, read-out: IC50, 72 hours): > 10 µM |
| Cc1c2oc3c(C)ccc(C(=O)N[C@@H]4C(=O)N[C@H](C(C)C)C(=O)N5CCC[C@H]5C(=O)N(C)CC(=O)N(C)[C@@H](C(C)C)C(=O)O[C@@H]4C)c3nc-2c(C(=O)N[C@@H]2C(=O)N[C@H](C(C)C)C(=O)N3CCC[C@H]3C(=O)N(C)CC(=O)N(C)[C@@H](C(C)C)C(=O)O[C@@H]2C)c(N)c1=O [Atinomycin D, actinomycin D] (I: T[dV]P[Sar][NMeV] / II: T[dV]P[Sar][NMeV]; ester I:1-I:C, II:1-II:C; linker I:N-II:N via Actinocin(9to1)) | > 10 µM | > 10 µM | 3.1 µM | – | – | – | time dependence of cytotoxicity against quiescent fibroblasts [1]: time-dependent increases in cytotoxicity |
